Experimental data reported in patent publication US12173002B2, “PRMT5 inhibitors and methods of use” (SHANGHAI APEIRON THERAPEUTICS COMPANY LIMITED, priority 2022, dated 2024).

Legend:
[1] = tested on: HCT-116 MTAP wild-type cells; test: Inhibitory activity on proliferation of HCT-116 MTAP wild-type cells (Cell-Titer Glo, 8 days); assay type: cell-based; details: Homo sapiens, HCT-116, 192 h, 8 days incubation
Description: Test 2: Compound's inhibitory activity on proliferation of HCT-116 MTAP wild-type cells.
(§1) Materials and Cells: HCT-116 MTAP wild-type cells obtained from Kyinno Bio (China); RPMI-1640 medium, fetal bovine serum, and penicillin-streptomycin purchased from Thermo Fisher Scientific (America); 384-well plates from PerkinElmer (America); Cell-Titer Glo assay kit from Promega (America).
Cell Culture: HCT116 MTAP wild-type cells were cultured in RPMI 1640 medium containing 10% fetal bovine serum and 1% penicillin-streptomycin at 37° C., 5% CO2. Only cells in logarithmic growth phase were used for experiments.
(§2) Cell Proliferation Inhibition Assay: The compound's inhibitory activity on HCT-116 MTAP wild-type cells was assessed using the Cell-Titer Glo assay kit. Adjusting cell concentration, 40 μL was seeded into a 384-well plate and cultured overnight at 37° C., 5% CO2. Each well received 40 nL of the compound, achieving concentrations from 0 to 10,000 nM (starting concentration 10,000 nM, 3-fold dilution, 10 points), with 0.1% DMSO. The cell plate was incubated for 8 days at 37° C., 5% CO2. Cell-Titer Glo reagent (40 μL) was added to measure cell viability.

[2] = Mouse pharmacokinetic experiment; assay type: in vivo; details: male, ICR mice, plasma
Description: II. Mouse Pharmacokinetic Experiment 1. Test Compounds
(§3) The compounds used in this experiment are specific embodiments of the present invention, with reference to compound AMG473 as an example from Amgen's patent WO 2022/169948A1, identified as example 473.
ICR male mice, N=3/group; sourced from Zhejiang Vital River Laboratory Animal Technology Co., Ltd.
3. Drug Preparation and Administration
(§4) Single oral (PO) administration to ICR mice: Compounds were dissolved in dimethyl sulfoxide, added to polyethylene glycol 400 and sterile water, and then adjusted to a clear solution with a small amount of 1 mol/L hydrochloric acid. After overnight fasting, the mice were orally gavaged with a dose of 10 mg/kg.
as §4, with “intravenous (IV)” for “oral (PO)”, “received tail vein injections” for “were orally gavaged”, “3” for “10”
Approximately 30 μL/time point blood samples were collected via the tail vein. Potassium ethylenediaminetetraacetate was used as an anticoagulant, and samples were centrifuged at 4000 g/min for 5 minutes at 4° C. within 1 hour. Blood sampling time points were 0.0833 (IV), 0.25, 0.5, 1, 2, 4, 6, 8, 24 hours. Samples were stored in a −20° C. freezer.
Plasma samples (30 μL, 10 μL sample+20 μL blank plasma) were mixed with 200 μL ice-cold acetonitrile containing internal standards. After vortexing for 30 seconds, samples were centrifuged at 4000 g/min for 20 minutes. One hundred microliters of the supernatant were transferred to a 96-well plate, followed by the addition of 200 μL ultrapure water. After vortexing for 30 seconds, 5 μL or 10 μL were injected into LC-MS/MS for analysis.

[3] = tested on: HCT-116 MTAP(−/−) deficient cells; test: Inhibitory activity on proliferation of HCT-116 MTAP(−/−) deficient cells (Cell-Titer Glo, 8 days); assay type: cell-based; details: Homo sapiens, HCT-116, 192 h, 8 days incubation
Description: as §1, with “Test 1: Compound's inhibitory activity on proliferation of HCT-116 MTAP(−/−) deficient cells. P Materials” for “Materials”, “MTAP(−/−) deficient” for “MTAP wild-type”
Cell Culture: HCT116 MTAP(−/−) deficient cells were cultured in RPMI 1640 medium containing 10% fetal bovine serum and 1% penicillin-streptomycin at 37° C., 5% CO2. Only cells in logarithmic growth phase were used for experiments.
as §2, with “MTAP(−/−) deficient” for “MTAP wild-type”

[4] = biological target: hERG ion channel (Homo sapiens, UniProt Q12809); test: hERG ion channel inhibition experiment (manual patch clamp, HEK293 cells); assay type: cell-based; details: HEK293 cells stably expressing hERG, whole-cell patch clamp, n=2
Sequence of hERG ion channel (Q12809 whole entry): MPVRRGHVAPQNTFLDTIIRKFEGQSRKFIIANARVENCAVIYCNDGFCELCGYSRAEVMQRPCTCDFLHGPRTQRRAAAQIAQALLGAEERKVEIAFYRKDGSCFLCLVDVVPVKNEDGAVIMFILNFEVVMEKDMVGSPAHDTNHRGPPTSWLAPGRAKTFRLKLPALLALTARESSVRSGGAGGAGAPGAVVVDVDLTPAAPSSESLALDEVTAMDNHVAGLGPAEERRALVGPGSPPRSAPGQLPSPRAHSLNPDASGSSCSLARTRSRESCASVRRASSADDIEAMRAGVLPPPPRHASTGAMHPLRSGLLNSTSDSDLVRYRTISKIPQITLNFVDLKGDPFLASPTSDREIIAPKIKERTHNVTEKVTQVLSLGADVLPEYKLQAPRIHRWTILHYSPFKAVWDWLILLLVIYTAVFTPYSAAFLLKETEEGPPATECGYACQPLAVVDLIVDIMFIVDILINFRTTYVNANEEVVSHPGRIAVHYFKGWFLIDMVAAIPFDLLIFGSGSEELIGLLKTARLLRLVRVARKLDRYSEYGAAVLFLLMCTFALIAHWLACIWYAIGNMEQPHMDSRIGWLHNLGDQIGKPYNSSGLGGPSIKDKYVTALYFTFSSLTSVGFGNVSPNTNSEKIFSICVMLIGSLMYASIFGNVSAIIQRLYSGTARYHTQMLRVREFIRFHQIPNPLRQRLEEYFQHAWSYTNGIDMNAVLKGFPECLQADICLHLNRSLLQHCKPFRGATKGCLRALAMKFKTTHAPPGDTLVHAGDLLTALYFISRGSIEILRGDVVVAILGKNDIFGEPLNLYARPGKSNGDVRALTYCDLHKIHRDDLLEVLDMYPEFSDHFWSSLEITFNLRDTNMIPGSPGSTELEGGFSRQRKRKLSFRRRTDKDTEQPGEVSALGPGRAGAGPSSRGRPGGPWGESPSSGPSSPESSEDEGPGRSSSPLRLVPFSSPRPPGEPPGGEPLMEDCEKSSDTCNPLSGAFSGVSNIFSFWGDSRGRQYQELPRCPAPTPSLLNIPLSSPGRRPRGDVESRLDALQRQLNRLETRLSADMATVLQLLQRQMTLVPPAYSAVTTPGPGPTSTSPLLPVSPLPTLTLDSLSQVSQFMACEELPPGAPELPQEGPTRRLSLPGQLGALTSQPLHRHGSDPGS
Description: III. hERG Ion Channel Inhibition Experiment
as §3
2. Cell Line and Cell Culture
Stably expressing hERG ion channel HEK293 cell line (Catalog: K1236) was purchased from Invitrogen. This cell line was cultured in a medium containing 85% DMEM, 10% dialyzed fetal bovine serum, 0.1 mM non-essential amino acid solution, 100 U/mL penicillin-streptomycin solution, 25 mM HEPES, 5 μg/mL blasticidin, and 400 μg/mL geneticin. When the cell density reached 40%˜80% of the culture dish area, digestion was performed using trypsin, and cells were passaged three times per week. Before the experiment, cells were cultured at a density of 5×10′ in 3.5 cm culture dishes, induced with […] Doxycycline for 48 hours. Subsequently, cells were digested and seeded onto slides for subsequent manual patch clamp experiments.)
3. Experimental Procedure
• 1) Place glass slides containing HEK293 cells in the perfusion chamber of the micro-manipulation station. • 2) Under an Olympus IX71 or IX73 inverted microscope, position suitable cells in the central field of view using a ×10 objective. Locate the tip of the glass electrode in the central field. Use the micromanipulator to lower the electrode while adjusting the coarse focus spiral to slowly approach the cell. • 3) When approaching the cell rapidly, switch to a ×40 objective for observation. Fine-tune the electrode approach using the micromanipulator to gradually reach the cell's surface. • 4) Apply negative pressure to establish 1GQ seal between the electrode tip and the cell membrane. • 5) Compensate for the transient capacitance current Cfast under voltage clamp mode. Then, repeat the brief negative pressure application for membrane rupture, ultimately reaching the whole-cell recording mode. • 6) Under voltage clamp at −60 mV, compensate for slow capacitance current Cslow, cell membrane capacitance (Cm), and input membrane resistance (Ra). • 7) Once the cell is stable, change the clamping voltage to −90 mV, set the sampling frequency to 20 kHz, and the filtering frequency to 10 kHz. Leak current detection conditions involve changing the clamping voltage to −80 mV for a duration of 500 ms. • 8) The hERG current testing method is as follows: Apply a 4.8-second depolarization command voltage to depolarize the membrane potential from −80 mV to +30 mV, then instantly apply a 5.2-second repolarization voltage to reduce the membrane potential to −50 mV to remove channel inactivation, allowing observation of the hERG tail current. The peak of the tail current represents the size of the hERG current. • 9) The hERG current […] is continuously recorded for 120 seconds before administration to assess the stability of the tested cells in producing hERG currents. Only stable cells within an acceptable range are eligible for subsequent compound testing. • 10) Testing the inhibitory effect of the test compound on hERG current: First, determine the baseline of hERG current obtained in extracellular fluid containing 0.1% DMSO. After maintaining stable hERG current for at least 5 minutes, sequentially perfuse the solution containing the test compound around the cells from low to high concentrations. After each perfusion, wait for about 5 minutes to allow the compound to act on the cells and simultaneously record hERG currents. Record the last 5 hERG current values after the recorded current stabilizes, and take their average as the final current value at a specific concentration. […] Meanwhile, positive compound dofetilide is synchronously detected before and after the end of the test drug experiment using the same patch clamp system to ensure the reliability and sensitivity of the entire detection system. The above test steps will be repeated on two separate test cells (n=2). 4. Data Analysis […]

AUC(0-t) ([2]; IV 3 mg/kg) [ng·h/mL]	AUC(0-t) ([2]; PO 10 mg/kg) [ng·h/mL]	half-life ([2]; IV 3 mg/kg) [h]	half-life ([2]; PO 10 mg/kg) [h]	Structure (SMILES)	IC50 [1] [nM]	bioavailability ([2]; PO 10 mg/kg vs IV 3 mg/kg, read-out: Bioavailability F) [%]	IC50 [3] [nM]	IC50 [4] [nM]
8090	21000	4.06	2.67	CN(C(=O)c1cc2c(cn1)nc(N)c1cncn12)[C@@H]1COc2cc(C(F)(F)F)ccc21 [Example 4, (S)-4-amino-N-methyl-N-(6-(trifluoromethyl)-2,3-dihydrobenzofuran-3-yl)imidazo[1,5-a] pyrido[3,4-e] pyrazine-8-carboxamide]				5290
9710	42500	3.65	3.31	[2H]C([2H])([2H])N(C(=O)c1ccc2nc(N)c3cncn3c2c1)[C@@H]1COc2cc(C(F)(F)F)ccc21 [Example 16, (S)-4-amino-N-(methyl-d3)-N-(6-(trifluoromethyl)-2,3-dihydrobenzofuran-3-yl)imidazo[1,5-a] quinoxaline-8-carboxamide]				2300
5420	46300	4.3	4.12	[2H]C([2H])([2H])N(C(=O)c1cc2c(cc1F)nc(N)c1cncn12)[C@@H]1COc2cc(C(F)(F)F)ccc21 [Example 41, (S)-4-amino-7-fluoro-N-(methyl-d3)-N-(6-(trifluoromethyl)-2,3-dihydrobenzofuran-3-yl)imidazo[1,5-a] quinoxaline-8-carboxamide]				8160
11200	44100	4.53	4.56	CN(C(=O)c1ccc2nc(N)c3cncn3c2c1)[C@@H]1COc2cc(C(F)(F)F)ccc21 [Example 107, (S)-4-amino-N-methyl-N-(6-(trifluoromethyl)-2,3-dihydrobenzofuran-3-yl)imidazo[1,5-a] quinoxaline-8-carboxamide]				4500
				CN(C(=O)c1cc2c(cc1F)nc(N)c1cncn12)[C@H]1COc2cc(C(F)(F)F)ccc21 [Example 120, (R)-4-amino-7-fluoro-N-methyl-N-(6-(trifluoromethyl)-2,3-dihydrobenzofuran-3-yl)imidazo[1,5-a]quinoxaline-8-carboxamide]	> 10000		900	
10800	28300	4.5	3.34	CN(C(=O)c1ccc2nc(N)c3cncn3c2c1)[C@@H]1COc2cc(C(F)(F)C(F)(F)F)ccc21 [Example 130, (S)-4-amino-N-methyl-N-(6-(perfluoroethyl)-2,3-dihydrobenzofuran-3-yl)imidazo[1,5-a] quinoxaline-8-carboxamide]				1360
				CN(C(=O)c1ccc2nc(N)c3cncn3c2c1)[C@@H]1CSc2cc(S(=O)(=O)C3CC3)ccc21 [Example 133, (S)-4-amino-N-(6-(cyclopropylsulfonyl)-2,3-dihydrobenzo[b]thiophen-3-yl)-N-methylimidazo[1,5-a] quinoxaline-8-carboxamide]	> 10000		71.4	

Structure (SMILES)	AUC(0-t) ([2]; IV 3 mg/kg) [ng·h/mL]	AUC(0-t) ([2]; PO 10 mg/kg) [ng·h/mL]	half-life ([2]; IV 3 mg/kg) [h]	half-life ([2]; PO 10 mg/kg) [h]	IC50 [1] [nM]	bioavailability ([2]; PO 10 mg/kg vs IV 3 mg/kg, read-out: Bioavailability F) [%]	IC50 [3] [nM]	IC50 [4] [nM]
CN(C(=O)c1ccc2nc(N)c3cncn3c2c1)[C@@H]1COc2cc(S(F)(F)(F)(F)F)ccc21 (single isomer, unassigned) [Example 104]	10500	26500	6.1	5.02	591	74	4.6	1510
